According to article PMC4488747, “Inhibition of P-glycoprotein Gene Expression and Function Enhances Triptolide-induced Hepatotoxicity in Mice” (Scientific Reports, 2015):

Key:
[1] = test system: P-glycoprotein (P-gp); design: method as in PMID 24065861; settings: ATPase assay with rat mdr1 membrane; cited from earlier work
[2] = design: method as in PMID 24632843; settings: bile duct-cannulated (BDC) rats, in 24 h; cited from earlier work
[3] = test system: Bcl-2/Bax; assay: Bcl-2 and Bax expression in mouse liver (western blot); assay type: in vivo; settings: mice, TP 1 mg/kg iv, 24 h; tariquidar and mdr1a-siRNA = given before TP
Method: For protein extraction, the cells or mice liver tissues were homogenized in RIPA buffer and then centrifuged at 14,000 g at 4 °C for 30 min. The supernatant was collected and the protein concentration was measured using BCA assay. The sample (50 μg protein/sample) was then loaded on 12% polyacrylamide gels and transferred to polyvinylidene difluoride membranes (Millipore, USA). After blocked by 3% bovine serum albumin, the membranes were incubated with primary antibodies and HRP-conjugated secondary antibody, and then detected using the enhanced chemiluminescence plus detection system (Molecular Device, Lmax, USA). The density of each band was quantified by using image analysis software (Science Lab 2005 Image Guage; Tokyo, Japan).
At 24 h of TP treatment, blood and liver tissue samples were collected from the mice in plasma kinetic study. Serum ALT and AST levels were determined with a CL8000 automated biochemical analyzer (Shimadzu, Japan) after serum was separated by centrifugation at 900 g for 10 min. Liver tissue samples were divided into two parts, the first half was kept at −80 °C until MDA and SOD measurements using MDA and SOD assay kits (Nanjing Jiancheng Bioengineering Institute, Nanjing, China) according to the manufacturer’s instructions. […] The total protein concentration was quantified by the BCA assay. Bcl-2 and Bax proteins were measured by western blot.

[4] = test system: BALB/C mice; assay: Serum ALT and AST (TP-induced hepatotoxicity) in mice; assay type: in vivo; settings: TP 1 mg/kg iv + NC-siRNA, 24 h after TP
Method: (§1) For TP plasma kinetic study and toxicological evaluation, mice were divided into four groups (n = 5 each) to collect blood and tissue samples: (1) normal + saline group; (2) 1.0 mg/kg TP + 15 nmol NC-siRNA group; (3) 1.0 mg/kg TP + 15 nmol mdr1a-siRNA group; (4) 1.0 mg/kg TP + 10 mg/kg tariquidar group. In order to avoid the complication caused by drug absorption or possible intestinal first-pass effect, TP and the inhibitor were intravenously administrated to mice. The siRNA group was intravenously injected with NC-siRNA or mdr1a-siRNA 2 days before TP dose. For TP + tariquidar group, the mice were received an intravenous tariquidar dose 20 min prior to the TP injection. Blood samples were collected at 2, 5, 10, 15, 30, 60 and 120 min after TP dosing. To assess the liver exposure of TP, liver tissue samples were collected from another set of mice at 5, 30, 60 and 120 min after dosing. Three TP groups were design for this experiment, including TP + NC-siRNA group, TP + mdr1a-siRNA group and TP + tariquidar group. The liver tissue samples were weighed and then homogenized in 10 volume (w:v) of ice-cold saline. The concentrations of TP in plasma and liver tissue were measured by a validated LC-MS/MS method. Prior to the above animal study, a preliminary experiment was performed to assess the possible differences in liver P-gp protein expression (Figure S1) and TP plasma kinetics between NC-siRNA treated mice and normal mice (with saline) (Figure S2 and supplemental Table 1). […] Therefore, NC-siRNA group was used as the control in the following animal study.
At 24 h of TP treatment, blood and liver tissue samples were collected from the mice in plasma kinetic study. Serum ALT and AST levels were determined with a CL8000 automated biochemical analyzer (Shimadzu, Japan) after serum was separated by centrifugation at 900 g for 10 min. Liver tissue samples were divided into two parts, the first half was kept at −80 °C until MDA and SOD measurements using MDA and SOD assay kits (Nanjing Jiancheng Bioengineering Institute, Nanjing, China) according to the manufacturer’s instructions. The other half was fixed with 4% paraformaldehyde solution and then dehydrated, embedded in paraffin and sectioned at a thickness of 5 μm. Four paraffin sections from each mouse were dewaxed, rehydrated and stained with hematoxylin-eosin (HE) for overall morphological evaluation. The total protein concentration was quantified by the BCA assay. Bcl-2 and Bax proteins were measured by western blot.

[5] = Hepatic concentrations of triptolide in mice; assay type: in vivo; settings: mice liver
Method: as §1
The TP in plasma and tissue samples was quantitatively analyzed by a published LC-MS/MS method. The method was slightly modified and validated for analysis of plasma and liver tissue samples. Plasma and tissue homogenate were pretreated with 3-fold volume of methanol-acetonitrile (1:1, v/v) containing 20 ng/ml propranolol to precipitate proteins, and then centrifuged at 4°C, 14,000 g for 10 min. The supernatant (10 μl) was injected into LC-MS/MS for analysis. An Aglient 6410B triple quadrupole mass spectrometer equipped with Agilent1290 Infinity UHPLC system (Agilent Technologies, Santa Clara, CA) was used. TP and propranolol (internal standard, IS) were eluted from an Agilent C18 column (dp = 3.5 μm, 2.1 × 50 mm, Agilent, MA) using a mobile phase gradient (A: water with 0.1% formic acid and 2.5 mM ammonium formate, B: acetonitrile with 0.1% formic acid). The gradient was run as: 0–2.5 min hold at 95% B; 2.5–3 min, a linear gradient to 10% B; 3–4 min hold at 10% B. Flow rate was 0.2 ml/min. TP and propranolol were detected in positive ion mode using single reaction monitoring: TP, m/z 378.1/360.1, IS, m/z 260.0/116.0. Under the above optimized condition, no significant endogenous interferences were detected at the peak regions for TP and IS in all the biological specimens. The calibration curves of TP were linear (r^2 > 0.99) over the concentration range of 1–1000 ng/ml. The lower limit of quantification was at 1 ng/ml. The intra and inter-day precisions (RSD) were all below 11% and the assay accuracies (RE) were in the range from 87% to 113%. The recovery was above 80% for both plasma and tissue samples.

[6] = test system: BALB/C mice; assay: Death rate of mice after TP treatment; assay type: in vivo; settings: TP 1 mg/kg iv, pretreatment with mdr1a-siRNA
Method: For TP plasma kinetic study and toxicological evaluation, mice were divided into four groups (n = 5 each) to collect blood and tissue samples: (1) normal + saline group; (2) 1.0 mg/kg TP + 15 nmol NC-siRNA group; (3) 1.0 mg/kg TP + 15 nmol mdr1a-siRNA group; (4) 1.0 mg/kg TP + 10 mg/kg tariquidar group. In order to avoid the complication caused by drug absorption or possible intestinal first-pass effect, TP and the inhibitor were intravenously administrated to mice. The siRNA group was intravenously injected with NC-siRNA or mdr1a-siRNA 2 days before TP dose. For TP + tariquidar group, the mice were received an intravenous tariquidar dose 20 min prior to the TP injection. Blood samples were collected at 2, 5, 10, 15, 30, 60 and 120 min after TP dosing. To assess the liver exposure of TP, liver tissue samples were collected from another set of mice at 5, 30, 60 and 120 min after dosing. Three TP groups were design for this experiment, including TP + NC-siRNA group, TP + mdr1a-siRNA group and TP + tariquidar group. The liver tissue samples were weighed and then homogenized in 10 volume (w:v) of ice-cold saline. The concentrations of TP in plasma and liver tissue were measured by a validated LC-MS/MS method. […]

For `CC(C)[C@]12O[C@H]1[C@@H]1O[C@]13[C@]1(O[C@H]1C[C@H]1C4=C(CC[C@@]13C)C(=O)OC4)[C@@H]2O` [TP, Triptolide], the P-gp substrate identification [1] is given as “substrate”, the “TP dose excreted via bile” value [2] is given as about 39% and the “Bcl-2/Bax ratio in liver” value [3] is given as “significantly reduced”. The “Serum ALT level, folds of the normal group” value [4] was 4.2 folds, the “Serum AST level, folds of the normal group” value [4] was 5.4 folds and the “Hepatic concentration of TP” value ([5]; 5 min after TP 1.0 mg/kg iv, NC-siRNA pretreatment (control)) was 1953.3 ± 786.7 ng/g protein. For the same molecule, the “Hepatic concentration of TP” value ([5]; 5 min after TP 1.0 mg/kg iv, mdr1a-siRNA iv 2 days before) was 4278.0 ± 653.1 ng/g protein, the “Hepatic concentration of TP” value ([5]; 5 min after TP 1.0 mg/kg iv, tariquidar 10 mg/kg iv 20 min prior) was 2857.3 ± 909.4 ng/g protein and the “Hepatic concentration of TP” value ([5]; 30 min after TP 1.0 mg/kg iv, NC-siRNA pretreatment (control)) was 394.9 ± 41.2 ng/g protein. For the same molecule, the “Hepatic concentration of TP” value ([5]; 30 min after TP 1.0 mg/kg iv, mdr1a-siRNA iv 2 days before) was 950.8 ± 232.1 ng/g protein, the “Hepatic concentration of TP” value ([5]; 30 min after TP 1.0 mg/kg iv, tariquidar 10 mg/kg iv 20 min prior) was 683.9 ± 61.3 ng/g protein and the “Hepatic concentration of TP” value ([5]; 60 min after TP 1.0 mg/kg iv, NC-siRNA pretreatment (control)) was 170.6 ± 66.3 ng/g protein. The “Hepatic concentration of TP” value ([5]; 60 min after TP 1.0 mg/kg iv, mdr1a-siRNA iv 2 days before) was 326.2 ± 22.4 ng/g protein, the “Hepatic concentration of TP” value ([5]; 60 min after TP 1.0 mg/kg iv, tariquidar 10 mg/kg iv 20 min prior) was 302.8 ± 22.7 ng/g protein and the “Hepatic concentration of TP” value ([5]; 120 min after TP 1.0 mg/kg iv, NC-siRNA pretreatment (control)) was 37.4 ± 12.2 ng/g protein. The “Hepatic concentration of TP” value ([5]; 120 min after TP 1.0 mg/kg iv, mdr1a-siRNA iv 2 days before) was 84.8 ± 14.5 ng/g protein, the “Hepatic concentration of TP” value ([5]; 120 min after TP 1.0 mg/kg iv, tariquidar 10 mg/kg iv 20 min prior) was 36.1 ± 14.4 ng/g protein and the “Death rate within 30 h of TP treatment” value [6] was “about 60%”.
